Measurements as given in the NIST ThermoML archive (doi:10.1016/j.jct.2015.02.020).

Columns and labels:
[1] = refractive index (Na D-line) (dimensionless); xn = mol fraction of the nth substance listed; conditions: 101.3 kPa, Liquid, Standard Abbe refractometry
[2] = xn = mol fraction of the nth substance listed; conditions: 101.3 kPa, Liquid; for viscosity: Falling or rolling sphere viscometry; for speed of sound: Sing-around technique in a fixed-path interferometer; for mass density: Vibrating tube method

CC[n+]1cccc(C)c1.O=S(=O)([N-]S(=O)(=O)C(F)(F)F)C(F)(F)F + O
Conditions | mass density, [2] [kg/m3] | refractive index, [1] | speed of sound, [2] [m/s] | viscosity, [2] [mPa·s]
298.15 K, x2 = 0.131 | 1481.91 | 1.44197 | 1262.7 | 29.75
298.15 K, x2 = 0.189 | 1479.39 | 1.44144 | 1264.6 | 27.2
298.15 K, x2 = 0.266 | 1473.92 | 1.44013 | 1268.3 | 23.89
303.15 K, x2 = 0.131 | 1477.02 | 1.44057 | 1251.8 | 24.96
303.15 K, x2 = 0.189 | 1474.49 | 1.44005 | 1253.4 | 22.92
303.15 K, x2 = 0.266 | 1468.97 | 1.43917 | 1257.1 | 20.03
308.15 K, x2 = 0.131 | 1472.16 | 1.4391 | 1240.8 | 21.21
308.15 K, x2 = 0.189 | 1469.6 | 1.43852 | 1242.3 | 19.52
308.15 K, x2 = 0.266 | 1464.04 | 1.43769 | 1246 | 17.09
313.15 K, x2 = 0.131 | 1467.31 | 1.43766 | 1229.9 | 18.24
313.15 K, x2 = 0.189 | 1464.73 | 1.43716 | 1231.4 | 16.84
313.15 K, x2 = 0.266 | 1459.12 | 1.43624 | 1234.9 | 14.62
318.15 K, x2 = 0.131 | 1462.48 | 1.43623 | 1219.1 | 15.79
318.15 K, x2 = 0.189 | 1459.88 | 1.43573 | 1220.5 | 14.61
318.15 K, x2 = 0.266 | 1454.22 | 1.43533 | 1224 | 12.74
323.15 K, x2 = 0.131 | 1457.66 | 1.4348 | 1208.4 | 13.84
323.15 K, x2 = 0.189 | 1455.04 | 1.43425 | 1209.5 | 12.88
323.15 K, x2 = 0.266 | 1449.34 | 1.43385 | 1213.2 | 11.23
328.15 K, x2 = 0.131 | 1452.87 | 1.43338 | 1197.8 | 12.27
328.15 K, x2 = 0.189 | 1450.22 | 1.43281 | 1199.2 | 11.44
328.15 K, x2 = 0.266 | 1444.47 | 1.43261 | 1202.4 | 9.965
333.15 K, x2 = 0.131 | 1448.09 | 1.43195 | 1187.3 | 10.95
333.15 K, x2 = 0.189 | 1445.42 | 1.43142 | 1188.6 | 10.21
333.15 K, x2 = 0.266 | 1439.61 | 1.43119 | 1191.8 | 8.892
338.15 K, x2 = 0.131 | 1443.32 | 1.43052 | 1176.9 | 9.815
338.15 K, x2 = 0.189 | 1440.63 | 1.42999 | 1178.2 | 9.153
338.15 K, x2 = 0.266 | 1434.78 | 1.42974 | 1181.2 | 7.977
343.15 K, x2 = 0.131 | 1438.57 | 1.42911 | 1166.6 | 8.833
343.15 K, x2 = 0.189 | 1435.85 | 1.42853 | 1167.8 | 8.239
343.15 K, x2 = 0.266 | 1429.95 | 1.42835 | 1170.8 | 7.182

CC[n+]1ccccc1C.O=S(=O)([N-]S(=O)(=O)C(F)(F)F)C(F)(F)F + O
Conditions | mass density, [2] [kg/m3] | refractive index, [1] | speed of sound, [2] [m/s] | viscosity, [2] [mPa·s]
298.15 K, x2 = 0.124 | 1498.88 | 1.44635 | 1301.6 | 54.52
298.15 K, x2 = 0.172 | 1496.43 | 1.44579 | 1302.6 | 48.93
298.15 K, x2 = 0.256 | 1490.94 | 1.44479 | 1304.6 | 40.5
303.15 K, x2 = 0.124 | 1493.99 | 1.44489 | 1290.2 | 44.3
303.15 K, x2 = 0.172 | 1491.53 | 1.44442 | 1291.2 | 39.95
303.15 K, x2 = 0.256 | 1485.99 | 1.44323 | 1293.2 | 32.89
308.15 K, x2 = 0.124 | 1489.12 | 1.44343 | 1279 | 36.58
308.15 K, x2 = 0.172 | 1486.64 | 1.44289 | 1279.9 | 33.11
308.15 K, x2 = 0.256 | 1481.06 | 1.44178 | 1282.2 | 27.38
313.15 K, x2 = 0.124 | 1484.26 | 1.44195 | 1267.9 | 30.63
313.15 K, x2 = 0.172 | 1481.77 | 1.44136 | 1268.8 | 27.84
313.15 K, x2 = 0.256 | 1476.14 | 1.44044 | 1271 | 23.19
318.15 K, x2 = 0.124 | 1479.43 | 1.4405 | 1256.9 | 25.97
318.15 K, x2 = 0.172 | 1476.91 | 1.43988 | 1257.8 | 23.68
318.15 K, x2 = 0.256 | 1471.25 | 1.43914 | 1259.9 | 19.85
323.15 K, x2 = 0.124 | 1474.61 | 1.43906 | 1246 | 22.27
323.15 K, x2 = 0.172 | 1472.08 | 1.43853 | 1246.8 | 20.38
323.15 K, x2 = 0.256 | 1466.37 | 1.43787 | 1248.8 | 17.19
328.15 K, x2 = 0.124 | 1469.81 | 1.43777 | 1235.3 | 19.27
328.15 K, x2 = 0.172 | 1467.26 | 1.4372 | 1236 | 17.72
328.15 K, x2 = 0.256 | 1461.5 | 1.43662 | 1237.9 | 14.95
333.15 K, x2 = 0.124 | 1465.03 | 1.43633 | 1224.6 | 16.83
333.15 K, x2 = 0.172 | 1462.46 | 1.43586 | 1225.3 | 15.44
333.15 K, x2 = 0.256 | 1456.65 | 1.43532 | 1227.1 | 13.17
338.15 K, x2 = 0.124 | 1460.28 | 1.43494 | 1214 | 14.77
338.15 K, x2 = 0.172 | 1457.68 | 1.43447 | 1214.6 | 13.67
338.15 K, x2 = 0.256 | 1451.82 | 1.43398 | 1216.3 | 11.71
343.15 K, x2 = 0.124 | 1455.53 | 1.43355 | 1203.5 | 13.13
343.15 K, x2 = 0.172 | 1452.91 | 1.43315 | 1204.1 | 12.18
343.15 K, x2 = 0.256 | 1447.01 | 1.43279 | 1205.6 | 10.47
